# Values joined by “and” are separate entries in the source; they are usually repeats but may differ in a detail not shown here. Equal entries are not always repeated. Where two headings read alike, the source gives them in different places. Marks after values point to notes of the source that are not given here.
# What was measured:
# [1] = Comparative in vivo bioavailability study in the dog (oral gavage, plasma LC-MS-MS); conditions: for half-life / AUC / AUC(0-t) / Cmax / Tmax: Beagle, plasma, po
# Method: Test substances (i.e., tapentadol (1 mg/kg) and tapentadol valine carbamate (0.8 mg tapentadol base equivalents/kg)) were administered by oral gavage to a group of five dogs (dog nos. 1, 2, 3, 4 and 5) in a two-way crossover design. The characteristics of the test animals are set out in Table 3.
# (§1) Blood samples were taken at various times after administration and submitted to analysis for the parent drug and pro-drug using a validated LC-MS-MS assay. Pharmacokinetic parameters derived from the plasma analytical data were determined using Win Nonlin.
# [2] = cited from earlier work
# [3] = tested on: guinea pig small intestine myenteric plexus longitudinal muscle; assay: Electrical field stimulation response of isolated guinea pig small intestine smooth muscle (ex vivo); conditions: Cavia porcellus; isolated guinea pig ileum, EFS 14 Hz, non-cumulative 10 nM-30 μM; read-out: approximate EC50, effect on electrical field stimulation response
# Method: Strips of guinea pig small intestine myenteric plexus longitudinal muscle and mounted between platinum ring electrodes. The tissue was stretched to a steady tension of about 1 g and changes in force production were recorded using sensitive transducers.
# The optimal voltage for stimulation was determined while the tissue was paced with electrical field stimulation (EFS) at 14 Hz, with a pulse width of 0.5 msec (Trains of pulses for 20 seconds, every 50 seconds).
# EFS at optimal voltage continued throughout the protocol (stable responses=“baseline measurement of EFS”).
# The 3 test conditions employed were as follows:
# (1) Vehicle (deionised water, added at equivalent volume additions to test articles), (2) Tapentadol at 6 concentrations (10 nM, 100 nM, 1 μM, 3 μM, 10 μM & 30 μM) (3) Tapentadol valine carbamate at 6 concentrations (10 nM, 100 nM, 1 μM, 3 μM, 10 μM, & 30 μM).
# Following 10 minutes of baseline EFS, first addition of test article or vehicle (deionized water) was performed.
# Test concentrations were added in a non-cumulative manner with PSS washes between each addition. Next, TTX (Na+ channel blocker) was added to confirm EFS responses were elicited via nerve stimulation. EFS was then stopped.
# [4] = Comparative bioavailability after oral administration to rats (plasma LC-MS-MS); format: in vivo; conditions: male rat, oral tapentadol 10 mg free base equiv/kg, individual animals 1-5 (5 outlier)
# Method: Test substances, i.e., tapentadol or tapentadol valine carbamate were administered by oral gavage to groups of male Sprague Dawley rats.
# as §1
# [5] = oral tapentadol HCl 1 mg tapentadol base equiv/kg, individual dogs 1-5
# [6] = oral tapentadol valine carbamate 0.8 mg tapentadol base equiv/kg, individual dogs 1-5
smiles,measurement,setting,value
"CC[C@@H](c1cccc(O)c1)[C@@H](C)CN(C)C (racemic) [Tapentadol, (−)-(1R,2R)-3-(3-dimethyl-amino-1-ethyl-2-methyl-propyl)-phenol]",half-life,"[1]; 0.8 mg/kg, oral tapentadol valine carbamate 0.8 mg tapentadol base equiv/kg, calculated as ln2/mean k, read-out: t½ of tapentadol (converted)",48 min
same,AUC,"[1]; 0.8 mg/kg, oral tapentadol valine carbamate 0.8 mg tapentadol base equiv/kg, individual dogs 1-5, read-out: AUC of tapentadol",31.4 ng·h/mL
same,AUC(0-t),"[1]; 0.8 mg/kg, oral tapentadol valine carbamate 0.8 mg tapentadol base equiv/kg, individual dogs 1-5, read-out: AUCt of tapentadol",29.5 ng·h/mL
same,Cmax,"[1]; 0.8 mg/kg, oral tapentadol valine carbamate 0.8 mg tapentadol base equiv/kg, individual dogs 1-5, read-out: Cmax of tapentadol",13.7 ng/mL
same,Tmax,"[1]; 0.8 mg/kg, oral tapentadol valine carbamate 0.8 mg tapentadol base equiv/kg, individual dogs 1-5, read-out: Tmax of tapentadol",60 min
same,half-life,"[1]; 0.8 mg/kg, oral tapentadol valine carbamate 0.8 mg tapentadol base equiv/kg, individual dogs 1-5, read-out: t½ of tapentadol (converted)",48 min
same,AUC,"[1]; 0.8 mg/kg, oral tapentadol valine carbamate 0.8 mg tapentadol base equiv/kg, mean of 5 dogs, read-out: AUC of tapentadol",34.2 ng·h/mL
same,AUC(0-t),"[1]; 0.8 mg/kg, oral tapentadol valine carbamate 0.8 mg tapentadol base equiv/kg, mean of 5 dogs, read-out: AUCt of tapentadol",32 ng·h/mL
same,Cmax,"[1]; 0.8 mg/kg, oral tapentadol valine carbamate 0.8 mg tapentadol base equiv/kg, mean of 5 dogs, read-out: Cmax of tapentadol",14.5 ng/mL
same,Tmax,"[1]; 0.8 mg/kg, oral tapentadol valine carbamate 0.8 mg tapentadol base equiv/kg, median of 5 dogs, read-out: Tmax of tapentadol",60 min
same,half-life,"[1]; 1 mg/kg, oral tapentadol HCl 1 mg tapentadol base equiv/kg, calculated as ln2/mean k, read-out: t½ of tapentadol (converted)",72 min
same,Tmax,"[1]; 1 mg/kg, oral tapentadol HCl 1 mg tapentadol base equiv/kg, individual dogs 1-5, read-out: Tmax of tapentadol",30 min
same,AUC,"[1]; 1 mg/kg, oral tapentadol HCl 1 mg tapentadol base equiv/kg, mean of 5 dogs, read-out: AUC of tapentadol",2.78 ng·h/mL
same,AUC(0-t),"[1]; 1 mg/kg, oral tapentadol HCl 1 mg tapentadol base equiv/kg, mean of 5 dogs, read-out: AUCt of tapentadol",2.56 ng·h/mL
same,Cmax,"[1]; 1 mg/kg, oral tapentadol HCl 1 mg tapentadol base equiv/kg, mean of 5 dogs, read-out: Cmax of tapentadol",1.45 ng/mL
same,Tmax,"[1]; 1 mg/kg, oral tapentadol HCl 1 mg tapentadol base equiv/kg, median of 5 dogs, read-out: Tmax of tapentadol",30 min
same,AUC of tapentadol,[1]; [5],1.96 ng·h/mL and 2.02 ng·h/mL and 3.38 ng·h/mL and 4.53 ng·h/mL and 1.99 ng·h/mL
same,AUCt of tapentadol,[1]; [5],1.84 ng·h/mL and 1.88 ng·h/mL and 2.68 ng·h/mL and 4.48 ng·h/mL and 1.92 ng·h/mL
same,Cmax of tapentadol,[1]; [5],0.75 ng/mL and 1.77 ng/mL and 1.27 ng/mL and 2.39 ng/mL and 1.08 ng/mL
same,T>50%Cmax of tapentadol,[1]; [5],1.5 h (2×) and 0 h and 0.5 h (2×)
same,T>50%Cmax of tapentadol,"[1]; oral tapentadol HCl 1 mg tapentadol base equiv/kg, median of 5 dogs",0.5^a h
same,AUC of tapentadol,[1]; [6],25.5 ng·h/mL and 39.9 ng·h/mL and 29.1 ng·h/mL and 45.0 ng·h/mL
same,AUCt of tapentadol,[1]; [6],22.8 ng·h/mL and 36.4 ng·h/mL and 28.3 ng·h/mL and 43.2 ng·h/mL
same,Cmax of tapentadol,[1]; [6],11.1 ng/mL and 17.0 ng/mL and 11.7 ng/mL and 19.3 ng/mL
same,T>50%Cmax of tapentadol,[1]; [6],1 h (3×) and 1.5 h (2×)
same,Tmax of tapentadol,[1]; [6],120 min
same,t½ of tapentadol,[1]; [6],66 min and 54 min and 60 min and 36 min
same,T>50%Cmax of tapentadol,"[1]; oral tapentadol valine carbamate 0.8 mg tapentadol base equiv/kg, median of 5 dogs",1^a h
same,clearance (printed C1),[2]; Terlinden et al. (2007),1468 ± 122 mL/min
same,plasma half-life,[2]; humans,270 min
same,EC50,[3],~0.2 µM
same,Plasma concentration of tapentadol,[4]; 0.5 h,003.53 ng/mL and 001.60 ng/mL and 2.33 ng/mL and 003.48 ng/mL and 70.5 ng/mL
same,Plasma concentration of tapentadol,[4]; 1 h,3.98 ng/mL and 2.32 ng/mL and 5.21 ng/mL and 5.87 ng/mL and 52.6 ng/mL
same,Plasma concentration of tapentadol,[4]; 2 h,2.70 ng/mL and 2.28 ng/mL and 1.72 ng/mL and 3.06 ng/mL and 22.7 ng/mL
same,Plasma concentration of tapentadol,[4]; 3 h,1.75 ng/mL and 1.65 ng/mL and 1.68 ng/mL and 2.20 ng/mL and 10.9 ng/mL
same,Plasma concentration of tapentadol,[4]; 4 h,1.65 ng/mL and 3.61 ng/mL and 1.67 ng/mL and 2.62 ng/mL and 9.10 ng/mL

# Reference: patent publication US20100227921A1, “AMINO ACID AND PEPTIDE CARBAMATE PRODRUGS OF […] USES THEREOF” (SHIRE LLC, priority 2009, published 2010)
